# Measured values: patent publication US11634396B2 (priority 2021, dated 2023)
# Where two headings read alike, the source gives them in different places.
# Legend:
# human mOR = human mOR (Homo sapiens (Human), UniProt P35372); test: cell-based
# kOR (OPRK1) = kOR (OPRK1) (Homo sapiens (Human), UniProt P41145); test: KOR β-Arrestin antagonist assay (Tango OPRK1-bla U2OS cells); format: cell-based
# Excerpt: KOR β-Arrestin Agonist and Antagonist assays were preformed using the Tango™ OPRK1-bla U2OS cells from Invitrogen and purchased from ThermoFisher, catalog number K1576.
# [1] = CHO Tag-lite human mOR stable cell line, forskolin 4 μM and DAMGO at EC90, read-out: mOR cAMP Antagonist Assay IC50
# human mOR, sequence (P35372 whole entry): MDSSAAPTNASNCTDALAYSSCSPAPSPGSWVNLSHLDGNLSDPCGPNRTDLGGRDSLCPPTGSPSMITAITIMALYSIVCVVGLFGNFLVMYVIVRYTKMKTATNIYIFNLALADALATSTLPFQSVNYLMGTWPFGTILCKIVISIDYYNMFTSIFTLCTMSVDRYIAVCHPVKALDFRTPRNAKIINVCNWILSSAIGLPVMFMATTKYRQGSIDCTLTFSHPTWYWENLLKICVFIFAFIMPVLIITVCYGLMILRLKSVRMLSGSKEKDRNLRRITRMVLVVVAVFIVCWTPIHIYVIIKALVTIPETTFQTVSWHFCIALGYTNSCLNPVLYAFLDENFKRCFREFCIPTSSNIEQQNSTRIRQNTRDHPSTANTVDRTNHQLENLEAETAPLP
# kOR (OPRK1), sequence (P41145 whole entry): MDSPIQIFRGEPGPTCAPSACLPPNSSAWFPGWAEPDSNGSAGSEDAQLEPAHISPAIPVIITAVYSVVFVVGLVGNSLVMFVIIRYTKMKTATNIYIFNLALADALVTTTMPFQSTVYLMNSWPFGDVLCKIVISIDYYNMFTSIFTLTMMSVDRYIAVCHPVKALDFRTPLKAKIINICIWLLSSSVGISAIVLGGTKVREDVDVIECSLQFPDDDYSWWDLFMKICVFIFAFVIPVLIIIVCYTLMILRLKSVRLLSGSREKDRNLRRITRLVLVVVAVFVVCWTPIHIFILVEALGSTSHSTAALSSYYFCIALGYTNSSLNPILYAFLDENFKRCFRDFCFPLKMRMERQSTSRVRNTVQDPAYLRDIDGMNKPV
Structure (SMILES),IC50 (human mOR),IC50 (kOR (OPRK1)),IC50 (human mOR; [1])
"COc1ccc(C(CC(=O)NC[C@H](Cc2cc(F)c(C(N)=O)c(F)c2)N(C)C)C2(C(F)(F)F)CC2)cn1 (stereo partly drawn) [Compound 49, 4-[(2S)-2-(dimethylamino)-3-[3-(6-methoxypyridin-3-yl)-3-[1-(trifluoromethyl)cyclopropyl]propanamido]propyl]-2,6-difluorobenzamide]",> 3 µM,< 0.3 µM,–
"CN(C)[C@H](CNC(=O)CC(c1ccc(Cl)cn1)C1(C(F)(F)F)CC1)Cc1ccc(C(N)=O)cc1Cl (stereo partly drawn) [Compound 37, 3-chloro-4-[(2S)-3-[3-(5-chloropyridin-2-yl)-3-[1-(trifluoromethyl)cyclopropyl]propanamido]-2-(dimethylamino)propyl]benzamide]",< 0.3 µM,< 0.3 µM,–
"CN(C)[C@H](CNC(=O)C[C@H](c1ccccn1)C1(C(F)(F)F)CC1)Cc1ccc(C(N)=O)cc1 [Compound 81, 4-((S)-2-(dimethylamino)-3-((S)-3-(pyridin-2-yl)-3-(1-(trifluoromethyl)cyclopropyl)propanamido)propyl)benzamide]",< 0.3 µM,< 0.3 µM,–
"CN(C)[C@H](CNC(=O)CC(c1cncc(F)c1)C1(C(F)(F)F)CC1)Cc1ccc(C(N)=O)c(F)c1 (stereo partly drawn) [Compound 76, 4-[(2S)-2-(dimethylamino)-3-[3-(5-fluoropyridin-3-yl)-3-[1-(trifluoromethyl)cyclopropyl]propanamido]propyl]-2-fluorobenzamide]",> 3 µM,< 0.3 µM,–
"Cc1ncc([C@@H](CC(=O)NC[C@H](Cc2ccc(C(N)=O)cc2Cl)N(C)C)C2(C(F)(F)F)CC2)cn1 [Compound 24, 3-chloro-4-[(2S)-2-(dimethylamino)-3-[(3R)-3-(2-methylpyrimidin-5-yl)-3-[1-(trifluoromethyl)cyclopropyl]propanamido]propyl]benzamide]",< 0.3 µM,< 0.3 µM,–
"CN(C)[C@H](CNC(=O)CC(c1cncnc1)C1(C(F)(F)F)CC1)Cc1ccc(C(N)=O)c(F)c1 (stereo partly drawn) [Compound 72, 4-[(2S)-2-(dimethylamino)-3-[3-(pyrimidin-5-yl)-3-[1-(trifluoromethyl)cyclopropyl]propanamido]propyl]-2-fluorobenzamide]",–,< 0.3 µM,< 0.3 µM
"CN(C)[C@H](CNC(=O)CC(c1ccc(C(F)(F)F)nc1)C1(C(F)(F)F)CC1)Cc1ccc(C(N)=O)cc1Cl (stereo partly drawn) [Compound 32, 3-chloro-4-[(2S)-2-(dimethylamino)-3-{3-[1-(trifluoromethyl)cyclopropyl]-3-[6-(trifluoromethyl)pyridin-3-yl]propanamido}propyl]benzamide]",–,< 0.3 µM,< 0.3 µM
"CN[C@H](CNC(=O)C[C@H](c1ccccc1)C1(C(F)(F)F)CC1)Cc1ccc(C(N)=O)cc1 [Compound 85, 4-[(2S)-2-(methylamino)-3-[(3R)-3-phenyl-3-[1-(trifluoromethyl)cyclopropyl]propanamido]propyl]benzamide]",< 0.3 µM,< 0.3 µM,–
"Cc1ncc([C@@H](CC(=O)NC[C@H](Cc2ccc(C(N)=O)cc2Cl)N(C)C)C2CC2)cn1 [Compound 25, 3-chloro-4-[(2S)-3-[(3S)-3-cyclopropyl-3-(2-methylpyrimidin-5-yl)propanamido]-2-(dimethylamino)propyl]benzamide]",< 0.3 µM,0.3 to 3 µM,–
"CN(C)[C@H](CNC(=O)C[C@@H](CC1CC1)c1cccnc1)Cc1ccc(C(N)=O)c(F)c1 [Compound 66, 4-((S)-3-((R)-4-cyclopropyl-3-(pyridin-3-yl)butanamido)-2-(dimethylamino)propyl)-2-fluorobenzamide]",< 0.3 µM,< 0.3 µM,–
"CN(C)[C@H](CNC(=O)CC(c1cccnc1)C1(C(F)(F)F)CC1)Cc1ccc(C(N)=O)c(F)c1 (stereo partly drawn) [Compound 74, 4-[(2S)-2-(dimethylamino)-3-[3-(pyridin-3-yl)-3-[1-(trifluoromethyl)cyclopropyl]propanamido]propyl]-2-fluorobenzamide]",> 3 µM,< 0.3 µM,–
"COc1ccc(C(CC(=O)NC[C@H](Cc2ccc(O)cc2C)N(C)C)C2(C(F)(F)F)CC2)cn1 (stereo partly drawn) [Compound 273, N-((S)-2-(dimethylamino)-3-(4-hydroxy-2-methylphenyl)propyl)-3-(6-methoxypyridin-3-yl)-3-(1-(trifluoromethyl)cyclopropyl) propanamide]",< 0.3 µM,< 0.3 µM,–
"COc1ccc(C(CC(=O)NC[C@H](Cc2ccc(C(N)=O)cc2Cl)N(C)C)C2(C(F)(F)F)CC2)cn1 (stereo partly drawn) [Compound 35, 3-chloro-4-[(2S)-2-(dimethylamino)-3-[3-(6-methoxypyridin-3-yl)-3-[1-(trifluoromethyl)cyclopropyl]propanamido]propyl]benzamide]",< 0.3 µM,< 0.3 µM,–
"Cc1ccc([C@@H](CC(=O)NC[C@H](Cc2ccc(C(N)=O)c(F)c2)N(C)C)C2(C(F)(F)F)CC2)cn1 [Compound 75, 4-[(2S)-2-(dimethylamino)-3-[(3R)-3-(6-methylpyridin-3-yl)-3-[1-(trifluoromethyl)cyclopropyl]propanamido]propyl]-2-fluorobenzamide]",< 0.3 µM,< 0.3 µM,–
"CN(C)[C@H](CNC(=O)CC(c1cccnc1)C1(C(F)(F)F)CC1)Cc1ccc(C(N)=O)cc1Cl (stereo partly drawn) [Compound 38, 3-chloro-4-[(2S)-2-(dimethylamino)-3-[3-(pyridin-3-yl)-3-[1-(trifluoromethyl)cyclopropyl]propanamido]propyl]benzamide]",< 0.3 µM,< 0.3 µM,–
"Cc1ncc(C(CC(=O)NC[C@H](Cc2ccc(C(N)=O)cc2Cl)N(C)C)C2(C(F)(F)F)CC2)cn1 (stereo partly drawn) [Compound 34, 3-chloro-4-[(2S)-2-(dimethylamino)-3-[3-(2-methylpyrimidin-5-yl)-3-[1-(trifluoromethyl)cyclopropyl]propanamido]propyl]benzamide]",< 0.3 µM,< 0.3 µM,–
"CNC(=O)c1ccc(C[C@@H](CNC(=O)CC(c2ccccn2)C2(C(F)(F)F)CC2)N(C)C)c(C)c1 (stereo partly drawn) [Compound 141, 4-((2S)-2-(dimethylamino)-3-(3-(pyridin-2-yl)-3-(1-(trifluoromethyl)cyclopropyl)propanamido)propyl)-N,3-dimethylbenzamide]",< 0.3 µM,< 0.3 µM,–
"Cc1ccc([C@H](CC(=O)NC[C@H](Cc2ccc(C(N)=O)c(F)c2Cl)N(C)C)C2(C(F)(F)F)CC2)cn1 [Compound 17, 3-chloro-4-[(2S)-2-(dimethylamino)-3-[(3S)-3-(6-methylpyridin-3-yl)-3-[1-(trifluoromethyl)cyclopropyl]propanamido]propyl]-2-fluorobenzamide]",–,< 0.3 µM,> 3 µM
"Cc1ncc([C@@H](CC(=O)NC[C@H](Cc2ccc(C(N)=O)c(F)c2)N2CCCC2)C2(C(F)(F)F)CC2)cn1 [Compound 65, 2-fluoro-4-((S)-3-((R)-3-(2-methylpyrimidin-5-yl)-3-(1-(trifluoromethyl)cyclopropyl)propanamido)-2-(pyrrolidin-1-yl)propyl)benzamide]",> 3 µM,0.3 to 3 µM,–
"CN(C)[C@H](CNC(=O)C[C@@H](c1cccnc1)C1(C(F)(F)F)CC1)Cc1ccc(C(N)=O)cc1Cl [Compound 41, 3-chloro-4-((S)-2-(dimethylamino)-3-((S)-3-(pyridin-3-yl)-3-(1-(trifluoromethyl)cyclopropyl)propanamido)propyl)benzamide]",< 0.3 µM,< 0.3 µM,–
